This is an account of results in ChEMBL document CHEMBL3734673, “Potent chemical chaperone compounds for GM1-gangliosidosis: N-substituted (+)-conduramine F-4 derivatives” (Medchemcomm, 2015).

Positions count from the first letter of the chain named. Active and inactive are the calls of the source. The calls are words filed in the database; no cut-off is given here. Some results are limits rather than exact numbers.

One series concerns the target T1, Beta-galactosidase (Homo sapiens, UniProt P16278).
T1 sequence (P16278 whole entry): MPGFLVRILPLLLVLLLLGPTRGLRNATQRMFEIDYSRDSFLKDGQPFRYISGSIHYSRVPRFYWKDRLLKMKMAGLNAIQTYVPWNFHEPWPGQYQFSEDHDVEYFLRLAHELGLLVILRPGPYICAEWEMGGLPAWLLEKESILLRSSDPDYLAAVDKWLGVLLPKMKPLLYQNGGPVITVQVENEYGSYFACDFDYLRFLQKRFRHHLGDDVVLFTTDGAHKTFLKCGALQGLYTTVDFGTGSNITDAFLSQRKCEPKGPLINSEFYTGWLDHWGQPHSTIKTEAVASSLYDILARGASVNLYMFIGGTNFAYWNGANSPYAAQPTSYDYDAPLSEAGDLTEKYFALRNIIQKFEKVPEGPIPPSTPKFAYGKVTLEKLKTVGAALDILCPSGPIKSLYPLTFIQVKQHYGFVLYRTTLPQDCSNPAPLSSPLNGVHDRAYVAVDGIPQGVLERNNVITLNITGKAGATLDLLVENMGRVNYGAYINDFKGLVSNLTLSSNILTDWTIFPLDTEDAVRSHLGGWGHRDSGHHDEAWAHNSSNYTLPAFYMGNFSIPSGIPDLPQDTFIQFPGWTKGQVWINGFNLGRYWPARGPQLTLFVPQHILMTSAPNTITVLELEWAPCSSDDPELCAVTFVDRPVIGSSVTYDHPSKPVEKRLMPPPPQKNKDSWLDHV
The experiment in a line: Inhibition of human beta-galactosidase expressed in mouse fibroblasts using 4-methylumbelliferone -conugated beta-D-galactoside as substrate incubated for 30 mins at pH 4.5 followed by substrate addition by fluorescence analysis.

Series [1] concerns T2, Beta-galactosidase (Homo sapiens), P16278 [R201C].
T2 sequence (whole entry): T1 sequence (P16278 whole entry) with R201C
The experiment in a line: Activation of human beta-galactosidase R201C mutant expressed in mouse fibroblasts using 4-methylumbelliferone -conugated beta-D-galactoside as substrate at 20 uM preincubated for 48 hrs followed by substrate addition measured after 30 mins by fluorescence analysis relative to control.

The test system is the same in series [2]. The experiment in a line: Activation of human beta-galactosidase R201C mutant expressed in mouse fibroblasts using 4-methylumbelliferone -conugated beta-D-galactoside as substrate at 2 uM preincubated for 48 hrs followed by substrate addition measured after 30 mins by fluorescence analysis relative to control.
Series [3] has the same test system. The experiment in a line: Activation of human beta-galactosidase R201C mutant expressed in mouse fibroblasts using 4-methylumbelliferone -conugated beta-D-galactoside as substrate at 0.2 uM preincubated for 48 hrs followed by substrate addition measured after 30 mins by fluorescence analysis relative to control.
The target in series [4] is T3, Lysosomal acid glucosylceramidase (Homo sapiens, UniProt P04062).
T3 sequence (P04062 whole entry): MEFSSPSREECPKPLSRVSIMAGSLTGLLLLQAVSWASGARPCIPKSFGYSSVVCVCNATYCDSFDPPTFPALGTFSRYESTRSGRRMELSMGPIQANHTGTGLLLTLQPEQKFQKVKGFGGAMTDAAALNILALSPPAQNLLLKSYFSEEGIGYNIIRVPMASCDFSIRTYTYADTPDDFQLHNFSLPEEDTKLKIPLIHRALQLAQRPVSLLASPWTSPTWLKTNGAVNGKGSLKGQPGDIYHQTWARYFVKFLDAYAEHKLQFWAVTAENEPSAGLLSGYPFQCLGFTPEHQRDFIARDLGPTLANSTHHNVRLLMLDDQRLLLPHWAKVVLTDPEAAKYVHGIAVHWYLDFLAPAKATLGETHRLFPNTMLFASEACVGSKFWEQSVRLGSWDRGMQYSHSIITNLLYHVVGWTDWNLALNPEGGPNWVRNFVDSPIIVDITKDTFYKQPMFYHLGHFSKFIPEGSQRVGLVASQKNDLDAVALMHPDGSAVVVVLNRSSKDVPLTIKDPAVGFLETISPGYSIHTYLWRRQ
The experiment in a line: Inhibition of human beta-glucosidase isolated from human fibroblasts incubated for 30 mins using […] analysis.

Series [5] is described as follows: Inhibition of human alpha-galactosidase isolated from human fibroblasts incubated for 30 mins using […] analysis.
For series [6], the target named is T4, Beta-galactosidase (Bos taurus) (UniProt Q58D55).
T4 sequence (whole entry): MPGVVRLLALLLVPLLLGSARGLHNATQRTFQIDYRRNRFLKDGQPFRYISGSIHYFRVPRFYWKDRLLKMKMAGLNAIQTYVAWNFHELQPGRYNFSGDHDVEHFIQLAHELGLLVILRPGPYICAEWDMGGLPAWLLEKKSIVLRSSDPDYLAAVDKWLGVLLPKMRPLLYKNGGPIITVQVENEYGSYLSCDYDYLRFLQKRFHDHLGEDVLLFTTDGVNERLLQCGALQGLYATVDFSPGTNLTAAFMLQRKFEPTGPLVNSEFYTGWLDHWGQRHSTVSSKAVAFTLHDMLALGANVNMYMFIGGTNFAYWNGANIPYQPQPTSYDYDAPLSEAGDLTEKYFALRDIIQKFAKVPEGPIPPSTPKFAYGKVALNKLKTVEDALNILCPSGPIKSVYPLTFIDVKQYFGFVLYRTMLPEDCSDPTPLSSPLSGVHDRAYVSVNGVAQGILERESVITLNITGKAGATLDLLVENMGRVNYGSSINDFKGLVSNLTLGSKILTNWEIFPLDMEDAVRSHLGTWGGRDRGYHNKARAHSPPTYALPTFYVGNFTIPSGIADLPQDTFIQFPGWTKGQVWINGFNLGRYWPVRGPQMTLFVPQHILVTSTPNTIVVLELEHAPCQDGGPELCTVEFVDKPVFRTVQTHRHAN
The experiment in a line: Inhibition of bovine liver beta-galactosidase using p-nitrophenyl-beta-D-galactopyranoside as substrate preincubated with substrate followed by protein addition measured after 30 mins by microplate reader analysis.

The next series relates to Prunus dulcis. The experiment in a line: Inhibition of almond beta-glucosidase using p-nitrophenyl-beta-D-glucopyranoside as substrate preincubated with substrate followed by protein addition measured after 30 mins by microplate reader analysis.
The nature of series [7]: Cytotoxicity against human fibroblasts at 200 uM by LDH assay. Format: cell-based. As to conditions: fibroblast.

The IC50 is the concentration at which inhibition is half-maximal. Lower therefore signals greater potency.

For the compound `CCCCCCCCN[C@@H]1C=C(C)[C@H](O)[C@H](O)[C@H]1O`, the concentration for half-maximal inhibition (IC50) against Beta-galactosidase is 46 µM; in series [4], > 1000 µM; in series [5], > 1000 µM. The same compound displayed a fold change (FC) in series [1] of 5.2. Moreover, the result in [2] and in series [3] was Active.
As for `CCCCCCCCN[C@@H]1C=C[C@H](O)[C@H](O)[C@H]1O.Cl`, the figures for the concentration for half-maximal inhibition (IC50) (on Beta-galactosidase; in series [4]; in series [5]) were 120 µM, > 1000 µM and > 1000 µM, respectively. Also, the fold change (FC) in series [1] came out at 5.4. Moreover, the outcome in series [2] and in series [3] was Active. Also, the inhibition entry (in series [6]; with Prunus dulcis) was “Active” each time. This compound registered an Activity in [7] of 25%.
